# Earlier results as cited in patent publication US20210267912A1, “METHYL SULFONYL METHANE-CONTAINING COMPOSITION FOR PREVENTING OR ALLEVIATING OBESITY, FATTY LIVER, AND DIABETES” (priority 2018, published 2021).
# Conditions: animal toxicity test
smiles,measurement,value
CS(C)(=O)=O [Methylsulfonylmethane],Half lethal dose,more than 20 g per 1 kg of body weight
